Reference: BindingDB's records for doi:10.1016/S0960-894X(01)80190-6 (n/a, 1994)

Target: Lanosterol 14-alpha demethylase (Candida albicans) (UniProt P10613)
Assay: In vitro inhibition of Lanosterol 14-alpha demethylase (Candida albicans CY1005)

Chain of Lanosterol 14-alpha demethylase (Candida albicans) (P10613 whole entry, looked up): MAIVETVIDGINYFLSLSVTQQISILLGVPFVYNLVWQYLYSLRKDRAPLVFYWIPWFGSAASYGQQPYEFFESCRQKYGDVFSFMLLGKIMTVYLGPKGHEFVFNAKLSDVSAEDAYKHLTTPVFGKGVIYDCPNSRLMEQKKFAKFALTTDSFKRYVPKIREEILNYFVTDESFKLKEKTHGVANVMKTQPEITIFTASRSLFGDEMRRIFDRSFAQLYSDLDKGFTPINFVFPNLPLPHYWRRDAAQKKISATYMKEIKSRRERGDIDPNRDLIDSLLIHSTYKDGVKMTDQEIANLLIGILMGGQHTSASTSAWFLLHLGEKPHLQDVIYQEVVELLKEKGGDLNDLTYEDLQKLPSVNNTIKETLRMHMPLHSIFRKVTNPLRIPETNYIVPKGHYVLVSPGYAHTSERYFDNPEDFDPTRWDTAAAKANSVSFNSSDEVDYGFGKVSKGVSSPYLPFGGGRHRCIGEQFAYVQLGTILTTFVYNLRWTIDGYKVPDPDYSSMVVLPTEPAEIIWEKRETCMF

Compound	IC50 [nM]
CCCCCCC/C=C/C[C@@H]1OC[C@H](C)[C@H](OC)[C@H]1COC(=O)CN	225
CCc1ccc(CC[C@@H]2CCC(C)(C)[C@H](OC)[C@H]2Cn2ccnc2)cc1	90.3
CC[C@@H](C)n1ncn(-c2ccc(N3CCN(c4ccc(OC[C@H]5CO[C@](Cn6cncn6)(c6ccc(Cl)cc6Cl)O5)cc4)CC3)cc2)c1=O [ITRAZOLE]	85
